The results in this text go back to publication PMC9645260, “Small-molecule inhibitors of P-Rex guanine-nucleotide exchange factors” (Small GTPases, 2022).

The subject of this experiment is primary mouse neutrophils. The experiment in a line: Neutrophil ROS production, fMLP-stimulated. It is filed as cell-based. As to conditions: 10 µM fMLP. On the procedure:
Prex^−/− mice (Prex1^−/−Prex2^−/−) with general P-Rex deficiency were described previously and were compared to Prex^+/+ (Prex1^+/+Prex2^+/+) control mice on the same genetic background (C57Bl6/129Ola backcrossed seven times to C57Bl6). Mice were group-housed (up to 5) under specific opportunistic pathogen-free isolator conditions in Babraham’s small animal barrier facility that uses 12 h light/dark cycles with dusk and dawn settings, and were fed chow diet and water ad libitum. Mice from both sexes were used for experiments, at young-adult age (between 8 and 14 weeks), and were sex- and age-matched between genotypes within experiments. […]
Mature primary neutrophils were isolated from the bone marrow of age- and sex-matched Prex^+/+ and Prex^−/− mice freshly each day at 4°C, using Percoll^Plus (GE Healthcare) gradient, as described, using endotoxin-free media throughout. Isolated neutrophils were 70–90% pure, as assessed by KwikDiff staining of cytospins. ROS production was measured by real-time chemiluminescence assay as described, except that neutrophils were incubated with PREX-in1 before the assay. […] Real-time ROS production was recorded in a Berthold MicroLumat Plus luminometer (Berthold Technologies) at 37°C, for 2.5 min with fMLP stimulation or for 10 min with PMA stimulation. […]

Structures are written as SMILES.

By inhibition is commonly meant the relative decrease from the control value, in per cent.

On to `COc1ccc(-c2[nH]nc3c2C(c2ccc(-c4ccc(Cl)cc4)o2)C(C#N)=C(N)O3)cc1` (centres unmarked) [PREX-in1, 6-amino-4-[5-(4-chlorophenyl)-2-furyl]-3-(4-methoxyphenyl)-2,4-dihydropyrano[2,3-c]pyrazole-5-carbonitrile], for which the inhibition at 1 µM (Mus musculus, Neutrophil, 7 min, Prex+/+ neutrophils, 1 µM for 7 min, read-out: inhibition of ROS production overall) was determined as 50%. Under “Prex-/- neutrophils, 1 µM”, the “effect on ROS response” value is given as “did not affect”.
